Reference: US20230295162A1 (EÖTVÖS LORÁND TUDOMÁNYEGYETEM, priority 2020, published 2023)

Key:
EBC-1 cell line = test: Additional in vitro IC50 tests (Table 3); format: cell-based; settings: Homo sapiens
Procedure: (§1) Cell lines were maintained according to the instructions provided by ATCC (https://www.lgcstandards-atcc.org/) in a 5% CO2 humidified incubator maintained at 37° C. temperature. Effects of compounds on cell viability were measured via CellTiter-Glo® luminescent cell viability assay (Promega, Madison, WI, USA) Cells were plated at 1000 cells/well onto a flat-bottomed, white 96 well plate (BRANDplates, cat. no.: 781965). […] After the treatment, medium was removed and CellTiter-Glo® reagent was added. The luminescence signal was recorded using a microplate reader (BioTek Synergy 2 Multi-Mode Reader, BioTek, Winooski, VT, USA).
(§2) Cell viability data (% of untreated control cells) was evaluated with Microsoft Excel. Dose-response curves (using a non-linear regression model, log (inhibitor) vs response, variable slope) were generated and IC50 values were determined using Graph Pad Prism 5.02 software (GraphPad Software, San Diego, CA, USA).

SCC-25 cell line = test: Additional in vitro IC50 tests (Table 3); format: cell-based; settings: Homo sapiens
Procedure: as §1, §2

H2228 cell line = test: Additional in vitro IC50 tests (Table 3); format: cell-based; settings: Homo sapiens, NCI-H2228
Procedure: as §1, §2

Fadu cell line = test: Additional in vitro IC50 tests (Table 3); format: cell-based; settings: Homo sapiens
Procedure: as §1, §2

Detroit 562 cell line = test: Additional in vitro IC50 tests (Table 3); format: cell-based; settings: Homo sapiens
Procedure: as §1, §2

[1] = tested on: U-87 (human primary glioblastoma) cells; test: Short term cytotoxicity, MTT assay; format: cell-based; settings: 1 h treatment then 72 h culture, read-out: cytotoxicity expressed in IC50, U-87
Procedure: (§3) For the short term cytotoxicity studies the A-431 (human squamous carcinoma) and U-87 (human primary glioblastoma) cells were cultured in RPMI-1640 medium supplemented with 10% FCS (fetal calf serum, Sigma Ltd.), 2 mM L-glutamine, and […] gentamicin. Cell cultures were maintained at 37° C. in a humidified atmosphere with 5% CO2. The cells were grown to confluency and were distributed into 96-well plate with initial cell number of 5.0×10^3 per well. After 24 h incubation at 37° C., the cells were treated with the compounds in 200 μL final volume containing 1.0 v/v % DMSO. The cells were incubated with the compounds at 10^−4-10^2 μM concentration range for 1 h. Control cells were treated with serum free medium (RPMI-1640) only or with DMSO (c=1.0 v/v %) at 37° C. for 1 h. After incubation the cells were washed twice with serum free (RPMI-1640) medium. To determine the in vitro cytostatic effect, the cells were cultured for a further 72 h in 10% serum containing medium. MTT-solution ([…], 2 mg/mL, final concentration: 0.37 mg/mL) was added to each well. The respiratory chain [26, 27] and other electron transport systems reduce MTT and thereby form non-water-soluble violet formazane crystals within the cell. […] After 4 h of incubation the cells were centrifuged for 5 min (900 g) and the supernatant was removed. The obtained formazane crystals were dissolved in DMSO ([…]) and optical density (OD) of the samples was measured at λ=540 and 620 nm, respectively, using ELISA Reader (iEMS Reader, Labsystems, Finland). OD620 values were subtracted from OD540 values. The percent of cytostasis was calculated by using the following equation: Cytostatic effect (%)=[1−(ODtreated/ODcontrol)]×100 Values ODtreated and ODcontrol correspond to the optical densities of the treated and the control cells, respectively. In each case two independent experiments were carried out with 4 parallel measurements. […] The curves were defined using Microcal™ Origin1 (version 7.5) software: cytostasis was plotted as a function of concentration, fitted to a sigmoidal curve, and based on this curve, the half maximal inhibitory concentration (IC50) value was determined.

[2] = tested on: A-431 (human squamous carcinoma) cells; test: Short term cytotoxicity, MTT assay; format: cell-based; settings: 1 h treatment then 72 h culture, read-out: cytotoxicity expressed in IC50, A-431
Procedure: as §3

[3] = tested on: PANC-1 (human pancreatic carcinoma) cells; test: Impedance-based viability assay (xCELLigence SP), long treatment; format: cell-based; settings: 72 h, read-out: cytotoxicity expressed in IC50, PANC-1
From the text: (Gibco®/Invitrogen Corporation, New York, NY, USA).
Data obtained from each experiment represent mathematical averages.

[4] = tested on: EBC-1 lung cancer cell line; test: High-throughput screening, CellTiter-Glo cell viability assay at 100 nM; format: cell-based, human; settings: Homo sapiens, EBC-1, HTS, compounds at 100 nM, 72 h, read-out: cytotoxicity expressed in IC50, EBC-1 (results of High throughput screening)
[5] = tested on: H2228 lung cancer cell line; test: as above; format: cell-based, human; settings: Homo sapiens, NCI-H2228, HTS, compounds at 100 nM, 72 h, read-out: cytotoxicity expressed in IC50, H2228 (results of High throughput screening)
[6] = tested on: COLO-205 (human colorectal adenocarcinoma) cells; test: Colorimetric alamarBlue assay, long treatment; settings: COLO 205, 72 h, read-out: cytotoxicity expressed in IC50, COLO-205
[7] = tested on: A2058 (human metastatic melanoma) cells; test: Colorimetric alamarBlue assay, long treatment; settings: Homo sapiens, A2058, 72 h, read-out: cytotoxicity expressed in IC50, A-2058
[8] = tested on: Panc1 pancreatic cancer cell line; test: CellTiter-Glo IC50 (Example 19); format: cell-based; settings: Homo sapiens, PANC-1, 72 h
Procedure: Some representative imipridones and ONC212 as reference were further tested on the following human malignant cell lines: PC3 and LNCap (prostate carcinoma); BxPC3, MiaPaCa2 and Panc1 (pancreatic cancer); A549, HCC827, H1993 and H520 (lung carcinoma); MDA-MB-453 and MDA-MB-231 (breast cancer) (see Table 2 and FIGS. 1-11).
as §1, §2

Row | Compound | IC50 (EBC-1 cell line) | IC50 (SCC-25 cell line) | IC50 (H2228 cell line) | IC50 (Fadu cell line) | IC50 (Detroit 562 cell line) | melting point | IC50 [1] | IC50 [2] | IC50 [3] | IC50 [4] | IC50 [5] | IC50 [6] | IC50 [7] | IC50 [8]
1 | Nc1cccc(CN2C(=O)C3=C(CCN(Cc4cc(F)cc(F)c4)C3)N3CCN=C23)c1 [I/126, 4-(3-Aminobenzyl)-7-(3,5-difluorobenzyl)-2,4,6,7,8,9-hexahydroimidazo[1,2-a]pyrido[3,4-e]pyrimidin-5(1H)-one] | 288 nM | > 300 nM | 269 nM | 290 nM | 103 nM | 114.5 °C |  |  |  |  |  |  |  | 
2 | O=C1C2=C(CCN(Cc3cc(F)cc(F)c3)C2)N2CCN=C2N1Cc1cccc(Cl)c1 [I/125, 4-(3-Chlorobenzyl)-7-(3,5-difluorobenzyl)-2,4,6,7,8,9-hexahydroimidazo[1,2-a]pyrido[3,4-e]pyrimidin-5(1H)-one] |  |  |  |  |  | 204.8 °C |  |  |  |  |  |  |  | 
3 | [N-]=[N+]=Nc1cccc(CN2C(=O)C3=C(CCN(Cc4cc(F)cc(F)c4)C3)N3CCN=C23)c1 [I/127, 4-(3-Azidobenzyl)-7-(3,5-difluorobenzyl)-2,4,6,7,8,9-hexahydroimidazo[1,2-a]pyrido[3,4-e]pyrimidin-5(1H)-one] | 16 nM | 21 nM | 15 nM | 16 nM | 10 nM | 158 °C |  |  |  |  |  |  |  | 
4 | O=C1C2=C(CCN(Cc3ccccc3)C2)N2CCN=C2N1Cc1ccc(F)cc1 [I/5] |  |  |  |  |  |  | > 25000 nM | 3550 nM | 250 nM | > 100 nM | > 100 nM | 247 nM | 250 nM | 
5 | O=C1C2=C(CCN(Cc3cccc(F)c3)C2)N2CCN=C2N1Cc1ccc(I)cc1 [I/46] |  |  |  |  |  |  | 25000 nM | 6160 nM | 25 nM | < 100 nM | ~100 nM |  | > 10000 nM | 
6 | NCc1cccc(CN2C(=O)C3=C(CCN(Cc4cc(F)cc(F)c4)C3)N3CCN=C23)c1 [I/61, 4-(3-(Aminomethyl)benzyl)-7-(3,5-difluorobenzyl)-2,4,6,7,8,9-hexahydroimidazo[1,2-a]pyrido[3,4-e]pyrimidin-5(1H)-one] | 29 nM | 89 nM | 104 nM | 22 nM | 84 nM | 129.5 °C |  |  |  |  |  |  |  | 300 nM
7 | O=C1C2=C(CCN(Cc3ccc(C(F)(F)F)cc3)C2)N2CCN=C2N1Cc1ccc(C(F)(F)F)c(F)c1 [I/27] |  |  |  |  |  |  | 5990 nM | 8950 nM | 25000 nM | > 100 nM | > 100 nM | 25000 nM | 12800 nM | 
8 | O=C1C2=C(CCN(Cc3cc(F)cc(F)c3)C2)N2CCN=C2N1[C@H](CO)c1ccc(F)cc1 [I/129 (S)] | > 300 nM | > 300 nM | 300 nM | 150 nM | 120 nM |  |  |  |  |  |  |  |  | 265 nM
9 | O=C1C2=C(CCN(Cc3cc(F)cc(F)c3)C2)N2CCN=C2N1[C@@H](CO)c1ccc(F)cc1 [I/129 (R)] |  |  |  |  |  | 76 °C |  |  |  |  |  |  |  | 15 nM
10 | O=C1C2=C(CCN(Cc3cc(F)cc(F)c3)C2)N2CCN=C2N1C(CO)c1ccc(Cl)cc1 (racemic) [I/128] | 13 nM | 19 nM | 12 nM | 12 nM | 5 nM | 86 °C |  |  |  |  |  |  |  | 10 nM
11 | O=C1C2=C(CCN(Cc3ccccc3F)C2)N2CCN=C2N1Cc1ccc(C(F)(F)F)c(F)c1 [I/26] |  |  |  |  |  |  | 3510 nM | 3630 nM | 920 nM | > 100 nM | > 100 nM | > 10000 nM | > 10000 nM | 
12 | NCc1cccc(CN2C(=O)C3=C(CCN(Cc4cccc(F)c4)C3)N3CCN=C23)c1 [I/60] |  |  |  |  |  |  | 416 nM | < 200 nM | 430 nM | > 100 nM | > 100 nM | > 10000 nM | > 10000 nM | 
13 | O=C1C2=C(CCN(Cc3ccc(F)cc3)C2)N2CCN=C2N1Cc1ccc(C(F)(F)F)c(F)c1 [I/28] |  |  |  |  |  |  | 17600 nM | 2660 nM | 960 nM | > 100 nM | > 100 nM | 3270 nM | > 10000 nM | 
14 | O=C1C2=C(CCN(Cc3cccc(F)c3)C2)N2CCN=C2N1Cc1ccc(C(F)(F)F)c(F)c1 [I/31] |  |  |  |  |  |  | > 25000 nM | < 200 nM | 76.7 nM | < 100 nM | < 100 nM |  |  | 
15 | O=C1C2=C(CCN(Cc3ccccc3)C2)N2CCN=C2N1Cc1cccc(F)c1 [I/8] |  |  |  |  |  |  | > 25000 nM | 7290 nM | 1420 nM | > 100 nM | > 100 nM | 4960 nM | 1730 nM | 
16 | O=C1C2=C(CCN(Cc3ccccc3)C2)N2CCN=C2N1Cc1cc(F)c(F)c(F)c1 [I/9] |  |  |  |  |  |  | 6020 nM | 1390 nM | 2220 nM |  |  | > 10000 nM | > 10000 nM | 
